Reference: patent US20230150924A1, “NOVEL COMPOUND HAVING CANCER METASTASIS INHIBITORY ACTIVITY, PREPARATION METHOD THEREFOR, AND PHARMACEUTICAL COMPOSITION FOR INHIBITING CANCER METASTASIS AND INVASION OR TREATING COLORECTAL CANCER, COMPRISING COMPOUND” (CELLGENTEK CO., LTD., priority 2019, published 2023)

How the values were obtained:
[1] = system: KAI1 promoter; experiment: KAI1 promoter luciferase reporter assay in transfected Caco2 cells; format: cell-based, human; settings: Homo sapiens, Caco-2, 16 h, 1 μM compound, 16 hours, transfected Caco2 cells, luciferase activity relative to DMSO control (=1); read-out: Relative KAI promoter activity
[2] = system: invasion of colorectal cancer cells; experiment: In vivo relative invation (invasion; EV and KITENIN controls, no method described); settings: relative to EV (=1); KIT = KITENIN

Row | Structure (SMILES) | fold induction at 1 µM [1] | In vivo relative invation [2]
1 | CN(C)c1ccc(C(=O)CNC(=O)c2ccccc2Cl)cc1 [Example 93, 2-chloro-N-(2-(4-(dimethylamino)phenyl)-2-oxoethyl)benzamide] | 2.48 | 1.091
2 | COc1ccccc1N1CCN(Cc2ccc(C(=O)NCC(=O)c3ccccc3)cc2)CC1 [Example 259, 4-((4-(2-methoxyphenyl)piperazin-1-yl)methyl)-N-(2-oxo-2-phenylethyl)benzamide] | 1.23 | 1.251
3 | COc1cccc(C(=O)CNC(=O)c2ccc(Cl)cc2)c1 [Example 122, 4-chloro-N-(2-(3-methoxyphenyl)-2-oxoethyl)benzamide] | 1.65 | 1.374
4 | O=C(CNC(=O)c1ccc(F)cc1F)c1ccccc1 [Example 22, 2,4-difluoro-N-(2-oxo-2-phenylethyl)benzamide] | 1.56 | 1.163
5 | CN(C)c1ccc(C(=O)CNC(=O)C2CC2)cc1 [Example 100, N-(2-(4-(dimethylamino)phenyl)-2-oxoethyl)cyclopropanecarboxamide] | 1.62 | 1.094
6 | C=CC(=O)NCC(=O)c1ccccc1 [Example 10, N-(2-oxo-2-phenylethyl) acrylamide] | 1.08 | 0.9099
7 | O=C(CNC(=O)c1ccccc1OC1CCN(C(=O)c2ccc(C(F)(F)F)cc2)CC1)c1ccccc1 [Example 193, N-(2-oxo-2-phenylethyl)-2-((1-(4-(trifluoromethyl)benzoyl)piperidin-4-yl)oxy)benzamide] | 0.82 | 1.214
8 | O=C(COc1ccccc1C(=O)NCC(=O)c1ccccc1)NC1CCCCC1 [Example 230, 2-(2-(cyclohexylamino)-2-oxoethoxy)-N-(2-oxo-2-phenylethyl)benzamide] | 1.08 | 1.267
9 | COc1cccc(C(=O)CNC(=O)c2cccc(CN3CCN(C(=O)OC(C)(C)C)CC3)c2)c1 [Example 289, tert-butyl 4-(3-((2-(3-methoxyphenyl)-2-oxoethyl)carbamoyl)benzyl)piperazine-1-carboxylate] | 1.61 | 1.263
10 | CC1CN(Cc2ccc(C(=O)NCC(=O)c3ccccc3)cc2)CC(C)O1 (stereo not drawn) [Example 278, 4-((2,6-dimethylmorpholino)methyl)-N-(2-oxo-2-phenylethyl)benzamide] | 1.38 | 1.217
11 | O=C(COc1ccccc1C(=O)NCC(=O)c1ccccc1)NCc1cccc(F)c1 [Example 205, 2-(2-((fluorobenzyl)amino)-2-oxoethoxy)-N-(2-oxo-2-phenylethyl)benzamide] | 1.1 | 1.166
12 | O=C(CNC(=O)c1ccc(F)cc1F)c1ccc(Cl)cc1 [Example 64, N-(2-(4-chlorophenyl)-2-oxoethyl)-2,4ifluorobenzamide] | 1.35 | 1.083
13 | O=C(COc1ccccc1C(=O)NCC(=O)c1ccccc1)Nc1ccccc1Cl [Example 224, 2-(2-((2-chlorophenyl)amino)-2-oxoethoxy)-N-(2-oxo-2-phenylethyl)benzamide] | 1.13 | 1.25
14 | O=C(COc1ccccc1C(=O)NCC(=O)c1ccccc1)Nc1cccnc1 [Example 208, 2-(2-oxo-2-(pyridin-3-ylamino)ethoxy)-N-(2-oxo-2-phenylethyl)benzamide] | 1.14 | 1.184
15 | CN(Cc1ccccc1)Cc1cccc(C(=O)NCC(=O)c2ccccc2)c1 [Example 242, 3-((benzyl(methyl)amino)methyl)-N-(2-oxo-2-phenylethyl)benzamide] | 1.17 | 1.146
16 | O=C(CCc1ccccc1)NCC(=O)c1ccc(Cl)cc1 [Example 49, N-(2-(4-chlorophenyl)-2-oxoethyl)-3-phenylpropanamide] | 0.7 | 1.197
17 | C/C=C/C(=O)NCC(=O)c1cccnc1 [Example 134, (E)-N-(2-oxo-2-(pyridin-3-yl)ethyl)but-2-enamide] | 1.09 | 1.297
18 | CCCCC(=O)NCC(=O)c1cccc(OC)c1 [Example 128, N-(2-(3-methoxyphenyl)-2-oxoethyl)pentanamide] | 1.1 | 1.179
19 | O=C(CNS(=O)(=O)Cc1ccccc1)c1ccc(N2CCOCC2)cc1 [Example 149, N-(2-(4-morpholinophenyl)-2-oxoethyl)-1-phenylmethanesulfonamide] | 1.07 | 1.261
20 | O=C(CNC(=O)c1ccc(CN2CCc3ccccc3C2)cc1)c1ccccc1 [Example 254, 4-((3,4-dihydroisoquinolin-2(1H)-yl)methyl)-N-(2-oxo-2-phenylethyl)benzamide] | 2.08 | 0.9143
21 | O=C(COc1ccccc1C(=O)NCC(=O)c1ccccc1)Nc1ccc(F)c([N+](=O)[O-])c1 [Example 211] | 1.44 | 0.8699
22 | COCC(=O)NCC(=O)c1ccc(N(C)C)cc1 [Example 106, N-(2-(4-(dimethylamino)phenyl)-2-oxoethyl)-2-methoxyacetamide] | 2.44 | 1.171
23 | Cc1ccccc1C(=O)NCC(=O)c1ccc(N(C)C)cc1 [Example 96, N-(2-(4-(dimethylamino)phenyl)-2-oxoethyl)-2-methylbenzamide] | 2.23 | 1.141
24 | O=C(CNC(=O)c1ccccc1F)c1ccc(Cl)cc1 [Example 44, N-(2-(4-chlorophenyl)-2-oxoethyl)-2-fluorobenzamide] | 0.98 | 0.9752
25 | O=C(CNC(=O)c1ccccc1F)c1ccc(N2CCOCC2)cc1 [Example 137, 2-fluoro-N-(2-(4-morpholinophenyl)-2-oxoethyl)benzamide] | 1.19 | 1.231
26 | O=C(COc1ccccc1C(=O)NCC(=O)c1ccccc1)Nc1cc(C(F)(F)F)ccc1F [Example 222, 2-(2-((2-fluoro-5-(trifluoromethyl)phenyl)amino)-2-oxoethoxy)-N-(2-oxo-2-phenylethyl)benzamide] | 1.2 | 1.275
27 | CC(C)Oc1cccc(NC(=O)COc2ccccc2C(=O)NCC(=O)c2ccccc2)c1 [Example 220, 2-(2-((3-isopropoxyphenyl)amino)-2-oxoethoxy)-N-(2-oxo-2-phenylethyl)benzamide] | 1.15 | 0.9324
28 | CC(C)(C)OC(=O)N1CCN(Cc2ccc(C(=O)NCC(=O)c3ccccc3)cc2)CC1 [Example 269, tert-butyl 4-(4-((2-oxo-2-phenylethyl)carbamoyl)benzyl) piperazine-1-carboxylate] | 1.38 | 1.163
29 | O=C(CNC(=O)c1ccc(CN2CCOCC2)cc1)c1ccccc1 [Example 276, 4-(morpholinomethyl)-N-(2-oxo-2-phenylethyl)benzamide] | 3.39 | 1.224
30 | C=CC(=O)NCC(=O)c1ccc(Cl)cc1 [Example 50, N-(2-(4-chlorophenyl)-2-oxoethyl)acrylamide] | 0.94 | 1.089
